39 compounds from patent publication US7928098B2, “Therapeutic and/or preventive agents for a sleep disorder” (Kyowa Hakko Kirin Co., Ltd., priority 2005, dated 2011) can be followed below.

As a reminder, the melting point is the temperature of the solid-liquid transition. In the case of `COC1CCN(CC(=O)Nc2nc(-c3ccco3)c(C(=O)c3ccccn3)s2)CC1.Cl`, the melting point was 220 to 232 °C (dec.).

The compound `CCN(CC)C(=O)C1CCCN(CC(=O)Nc2nc(-c3ccco3)c(C(=O)c3ccccn3)s2)C1.Cl` (stereo not drawn) displayed a melting point of 180 to 185 °C.

`CN1CCN(CC(=O)Nc2nc(-c3ccco3)c(C(=O)c3ccccn3)s2)CC1=O.Cl` returned a melting point of 170 to 188 °C.

Compound `Cn1c(-c2sc(NC(=O)c3ccccc3)nc2-c2ccco2)cc2ccccc21` [Compound 36, N-[4-(2-Furyl)-5-(1-methylindol-2-yl)thiazol-2-yl]benzamide] yielded a melting point of 195 to 196 °C.

In turn, `Cn1ccc(-c2sc(NC(=O)c3ccncc3)nc2-c2ccco2)cc1=O` [Compound 37, N-[4-(2-Furyl)-5-(1-methyl-2-oxo-1,2-dihydropyridin-4-yl)thiazol-2-yl]pyridine-4-carboxamide] gave a melting point of 280 to 282 °C.

As for `Cn1cc(-c2sc(NC(=O)c3ccncc3)nc2-c2ccco2)ccc1=O` [Compound 38, N-[4-(2-Furyl)-5-(1-methyl-2-oxo-1,2-dihydropyridin-5-yl)thiazol-2-yl]pyridine-4-carboxamide], the melting point was 294 to 295 °C.

The compound `CC(C)n1nc(-c2sc(NC(=O)c3ccncc3)nc2-c2ccco2)ccc1=O` [Compound 39, N-[4-(2-Furyl)-5-(1-isopropyl-6-oxo-1,6-dihydropyridazin-3-yl)thiazol-2-yl]pyridine-4-carboxamide] registered a melting point of 190 to 194 °C.

`CC(C)(O)C(=O)Nc1nc(-c2ccco2)c(C(=O)c2ccccc2)s1` [Compound 45, N-[5-Benzoyl-4-(2-furyl)thiazol-2-yl]-2-hydroxy-2-methylpropanamide] displayed a melting point of 153 to 154 °C.

`CN(C)Cc1cc(C(=O)Nc2nc(-c3ccco3)c(C(=O)c3ccccc3)s2)ccn1` [Compound 49, N-[5-Benzoyl-4-(2-furyl)thiazol-2-yl]-2-(dimethylaminomethyl)pyridine-4-carboxamide] returned a melting point of 205 to 209 °C.

Compound `O=C(Nc1nc(-c2ccco2)c(C(=O)c2ccccc2)s1)c1ccnc(CN2CCOCC2)c1` [Compound 52, N-[5-Benzoyl-4-(2-furyl)thiazol-2-yl]-2-(morpholinomethyl)pyridine-4-carboxamide] showed a melting point of 212 to 213 °C.

Consider `COCCN(C)c1cc(C(=O)Nc2nc(-c3ccco3)c(C(=O)c3ccccc3)s2)ccn1` [Compound 53, N-[5-Benzoyl-4-(2-furyl)thiazol-2-yl]-2-[N-(2-methoxyethyl)-N-methylamino]pyridine-4-carboxamide], for which the melting point fell in the range of 145 to 147 °C.

`Cn1cc(C(=O)Nc2nc(-c3ccco3)c(C(=O)c3ccccc3)s2)ccc1=O` [Compound 58, N-[5-Benzoyl-4-(2-furyl)thiazol-2-yl]-1-methyl-2-oxo-1,2-dihydropyridine-5-carboxamide] registered a melting point of 220 to 225 °C.

`CCn1cc(C(=O)Nc2nc(-c3ccco3)c(C(=O)c3ccccc3)s2)ccc1=O` [Compound 59, N-[5-Benzoyl-4-(2-furyl)thiazol-2-yl]-1-ethyl-2-oxo-1,2-dihydropyridine-5-carboxamide] gave a melting point of 109 to 114 °C.

Take `O=C(Nc1nc(-c2ccco2)c(C(=O)c2ccccc2)s1)c1ccc(=O)n(Cc2ccncc2)c1` [Compound 60, N-[5-Benzoyl-4-(2-furyl)thiazol-2-yl]-2-oxo-1-(pyridin-4-ylmethyl)-1,2-dihydropyridine-5-carboxamide]: the melting point was in the range of 270 to 275 °C.

`O=C(Nc1nc(-c2ccco2)c(C(=O)c2ccccc2)s1)c1ccnnc1` [Compound 61, N-[5-Benzoyl-4-(2-furyl)thiazol-2-yl]pyridazine-4-carboxamide] registered a melting point of 225 to 248 °C.

Compound `CC(=O)Nc1nc(-c2ccco2)c(C(=O)c2ccccn2)s1` [Compound 96, N-[4-(2-Furyl)-5-(pyridin-2-ylcarbonyl)thiazol-2-yl]-acetamide] gave a melting point of 216 to 217 °C.

With `CCCC(=O)Nc1nc(-c2ccco2)c(C(=O)c2ccccn2)s1` [Compound 97, N-[4-(2-Furyl)-5-(pyridin-2-ylcarbonyl)thiazol-2-yl]-butanamide], the melting point lay within 148 to 149 °C.

In turn, `CC(C)(C)C(=O)Nc1nc(-c2ccco2)c(C(=O)c2ccccn2)s1` [Compound 98, N-[4-(2-Furyl)-5-(pyridin-2-ylcarbonyl)thiazol-2-yl]-2,2-dimethylpropanamide] gave a melting point of 186 to 187 °C.

With `CC1(C(=O)Nc2nc(-c3ccco3)c(C(=O)c3ccccn3)s2)CC1` [Compound 100, N-[4-(2-Furyl)-5-(pyridin-2-ylcarbonyl)thiazol-2-yl]-1-methylcyclopropanecarboxamide], the melting point was 195 to 196 °C.

On to `O=C(c1ccccn1)c1sc(NC(=O)C2CCC2)nc1-c1ccco1` [Compound 101, N-[4-(2-Furyl)-5-(pyridin-2-ylcarbonyl)thiazol-2-yl]cyclobutanecarboxamide], for which the melting point was 165 to 170 °C.

Take `O=C(c1ccccn1)c1sc(NC(=O)C2CCOCC2)nc1-c1ccco1` [Compound 102, N-[4-(2-Furyl)-5-(pyridin-2-ylcarbonyl)thiazol-2-yl]tetrahydropyran-4-carboxamide]: the melting point fell in the range of 234 to 235 °C.

`O=C(c1ccccn1)c1sc(NC(=O)C2CCN(Cc3cccnc3)CC2)nc1-c1ccco1` [Compound 105, N-[4-(2-Furyl)-5-(pyridin-2-ylcarbonyl)thiazol-2-yl]-1-(pyridin-3-ylmethyl)piperidine-4-carboxamide]: the melting point lay in the range of 208 to 209 °C.

With `O=C(c1ccccn1)c1sc(NC(=O)C2CCN(Cc3ccncc3)CC2)nc1-c1ccco1` [Compound 106, N-[4-(2-Furyl)-5-(pyridin-2-ylcarbonyl)thiazol-2-yl]-1-(pyridin-4-ylmethyl)piperidine-4-carboxamide], the melting point lay in the range of 240 to 241 °C.

Take `O=C(Nc1nc(-c2ccco2)c(C(=O)c2ccccn2)s1)c1ccccc1` [Compound 107, N-[4-(2-Furyl)-5-(pyridin-2-ylcarbonyl)thiazol-2-yl]-benzamide]: the melting point lay in the range of 165 to 171 °C.

Regarding `COc1ccccc1C(=O)Nc1nc(-c2ccco2)c(C(=O)c2ccccn2)s1` [Compound 108, N-[4-(2-Furyl)-5-(pyridin-2-ylcarbonyl)thiazol-2-yl]-2-methoxybenzamide], the melting point is 205 to 208 °C.

Compound `COc1cccc(C(=O)Nc2nc(-c3ccco3)c(C(=O)c3ccccn3)s2)c1` [Compound 109, N-[4-(2-Furyl)-5-(pyridin-2-ylcarbonyl)thiazol-2-yl]-3-methoxybenzamide] gave a melting point of 165 to 166 °C.

Compound `COc1ccc(C(=O)Nc2nc(-c3ccco3)c(C(=O)c3ccccn3)s2)cc1` [Compound 110, N-[4-(2-Furyl)-5-(pyridin-2-ylcarbonyl)thiazol-2-yl]-4-methoxybenzamide] returned a melting point of 187 to 188 °C.

For `COc1ccc(C(=O)Nc2nc(-c3ccco3)c(C(=O)c3ccccn3)s2)cc1OC` [Compound 111, N-[4-(2-Furyl)-5-(pyridin-2-ylcarbonyl)thiazol-2-yl]-3,4-dimethoxybenzamide], the melting point was in the range of 169 to 170 °C.

In the case of `COc1cc(C(=O)Nc2nc(-c3ccco3)c(C(=O)c3ccccn3)s2)cc(OC)c1OC` [Compound 112, N-[4-(2-Furyl)-5-(pyridin-2-ylcarbonyl)thiazol-2-yl]-3,4,5-trimethoxybenzamide], the melting point is 172 to 180 °C (dec.).

Regarding `N#Cc1cccc(C(=O)Nc2nc(-c3ccco3)c(C(=O)c3ccccn3)s2)c1` [Compound 113, 3-Cyano-N-[4-(2-furyl)-5-(pyridin-2-ylcarbonyl)thiazol-2-yl]benzamide], the melting point was 234 to 237 °C.

Consider `CC(=O)c1cccc(C(=O)Nc2nc(-c3ccco3)c(C(=O)c3ccccn3)s2)c1` [Compound 115, 3-Acetyl-N-[4-(2-furyl)-5-(pyridin-2-ylcarbonyl)thiazol-2-yl]benzamide], for which the melting point lay in the range of 168 to 169 °C.

The compound `CC(=O)c1ccc(C(=O)Nc2nc(-c3ccco3)c(C(=O)c3ccccn3)s2)cc1` [Compound 116, 4-Acetyl-N-[4-(2-furyl)-5-(pyridin-2-ylcarbonyl)thiazol-2-yl]benzamide] gave a melting point of 204 to 206 °C.

Take `O=C(Nc1nc(-c2ccco2)c(C(=O)c2ccccn2)s1)c1ccc2c(c1)OCO2` [Compound 117, N-[4-(2-Furyl)-5-(pyridin-2-ylcarbonyl)thiazol-2-yl]-3,4-methylenedioxybenzamide]: the melting point was in the range of 235 to 236 °C.

Regarding `O=C(Nc1nc(-c2ccco2)c(C(=O)c2ccccn2)s1)c1ccc2c(c1)OCCO2` [Compound 118, N-[4-(2-Furyl)-5-(pyridin-2-ylcarbonyl)thiazol-2-yl]-1,4-benzodioxane-6-carboxamide], the melting point was in the range of 189 to 191 °C.

Take `O=C(c1ccccn1)c1sc(NC(=O)C2COc3ccccc3O2)nc1-c1ccco1` (stereo not drawn) [Compound 119, N-[4-(2-Furyl)-5-(pyridin-2-ylcarbonyl)thiazol-2-yl]-1,4-benzodioxane-2-carboxamide]: the melting point was 103 to 104 °C.

The compound `Cc1cc(C(=O)Nc2nc(-c3ccco3)c(C(=O)c3ccccn3)s2)ccn1` [Compound 120, N-[4-(2-Furyl)-5-(pyridin-2-ylcarbonyl)thiazol-2-yl]-2-methylpyridine-4-carboxamide] gave a melting point of 187 to 188 °C.

Turning to `O=C(Nc1nc(-c2ccco2)c(C(=O)c2ccccn2)s1)c1ccnc(Cl)c1` [Compound 122, 2-Chloro-N-[4-(2-furyl)-5-(pyridin-2-ylcarbonyl)thiazol-2-yl]pyridine-4-carboxamide], the melting point fell in the range of 219 to 225 °C.

`O=C(Nc1nc(-c2ccco2)c(C(=O)c2ccccn2)s1)c1ccncc1Cl` [Compound 123, 3-Chloro-N-[4-(2-furyl)-5-(pyridin-2-ylcarbonyl)thiazol-2-yl]pyridine-4-carboxamide] came in with a melting point of 206 to 207 °C.

As to `O=C(Nc1nc(-c2ccco2)c(C(=O)c2ccccn2)s1)c1cc(Cl)nc(Cl)c1` [Compound 124, 2,6-Dichloro-N-[4-(2-furyl)-5-(pyridin-2-ylcarbonyl)thiazol-2-yl]pyridine-4-carboxamide], the melting point was 254 to 258 °C.
